Patent US20210060058A1, “COMPOSITIONS AND METHODS FOR TREATING HYDROGEN SULFIDE-MEDIATED HYPERDYNAMIC CIRCULATION” (priority 2019, published 2021)
Where two headings read alike, the source gives them in different places.

What was measured:
[1] = tested on: rats; test: Portal vein flow during 20-minute jejunal NaHS infusion in rats fed MgO diet; assay type: in vivo, rat
Source text: FIG. 7. Portal venous flow recordings over 20-minute infusion of NaHS in two groups: Standard-diet-fed rats and Magnesium Oxide (MgO)-fed rats. Vehicle group shown as control; standard diet fed rats followed by water infusion. All measurements shown as percent change from baseline to accommodate for compensate for variation in baseline data; data shown as percent change±SEM. Baseline flow measurements recorded and average (shown as time 0) for each group. […] No difference is noted between MgO diet group and vehicle.
Rats were divided into three groups: Magnsium Oxide (MgO) diet, 500 mg MgO per 100 g chow, with NaHS infusion into small intestine (jejunim); standard diet with NaHS infusion into jejunum; and standard diet with control (vehicle) infusion into jejunim. Diets were administered for three days total. At the end of diet treatment, rats underwent surgery to measure porta vein flow before and after infusion of small intestine (jejunum) sodium hydrosulfide (NaHS), a hydrogen sulfide donor. Portal vein blood flow was recorded at baseline for 10 minutes and throughout 20-minute infusion periods. Data reported as percent change from baseline; infusion started at minute 1 of data shown. Blood flow data are reported as mean percent baseline change+/−SEM and were compared by 2-way RM-ANOVA.

[2] = tested on: Desulfovibrio vulgaris (DSV); settings: 14 hours
Source text: FIG. 8. Effect of molybdate on growth of Desulfovibrio vulgaris (DSV) on a culture plate.

[3] = tested on: Desulfovibrio vulgaris (DSV); test: Production of hydrogen sulfide gas by DSV in the culture system; assay type: cell-based; settings: molybdate at 10 μM, 50 μM, and 1 mM; dose dependent
Source text: FIG. 9. Effect of molybdate on the production of hydrogen sulfide gas measured in parts per billion (ppb) in the culture system.

Row | Structure (SMILES) | Portal venous flow (percent change from baseline), MgO diet group versus vehicle ([1]; 500 mg MgO per 100 g chow for three days, 20-minute NaHS infusion, vehicle = standard diet, water infusion) | Portal vein blood flow, MgO diet group versus other two groups ([1]; at minutes 20 of infusion) | Growth of DSV ([2]; molybdate at 10 μM, 50 μM, and 1 mM, dose-dependent) | Growth of DSV ([2]; molybdate at 1 mM) | Generation of H2S gas by DSV (ppb) [3]
1 | [O]=[Mg] [MgO, Magnesium Oxide] | No difference | Statistical significant difference |  |  | 
2 | [O]=[Mo](=[O])([O-])[O-] [molybdate] |  |  | suppressed the growth | completely suppressing the growth | suppressed the generation of H2S gas
